According to PubChem BioAssay (NCI):
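Five concentrations, 48 hours, 96-well plates. TGI: total growth inhibition.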

What was measured:
Assay in all cases: NCI-60 cell line screen, 48 h
HCT-15 colon = system: HCT-15 colon
HOP-62 NSCLC = system: HOP-62 NSCLC
LXFL 529 NSCLC = system: LXFL 529 NSCLC
SF-268 CNS = system: SF-268 CNS
M14 melanoma = system: M14 melanoma
DLD-1 colon = system: DLD-1 colon
ACHN renal = system: ACHN renal
SK-MEL-2 melanoma = system: SK-MEL-2 melanoma
UACC-62 melanoma = system: UACC-62 melanoma
HL-60(TB) leukemia = system: HL-60(TB) leukemia
HOP-92 NSCLC = system: HOP-92 NSCLC
XF 498 CNS = system: XF 498 CNS
MOLT-4 leukemia = system: MOLT-4 leukemia
RPMI-8226 leukemia = system: RPMI-8226 leukemia
786-0 renal = system: 786-0 renal
SNB-75 CNS = system: SNB-75 CNS
DMS 114 small cell lung = system: DMS 114 small cell lung
M19-MEL melanoma = system: M19-MEL melanoma
NCI-H460 lung = system: NCI-H460 lung
DMS 273 small cell lung = system: DMS 273 small cell lung
SR leukemia = system: SR leukemia
SK-OV-3 ovarian = system: SK-OV-3 ovarian
SN12C renal = system: SN12C renal
OVCAR-4 ovarian = system: OVCAR-4 ovarian
COLO 205 colon = system: COLO 205 colon
NCI-H226 lung = system: NCI-H226 lung
RXF-631 renal = system: RXF-631 renal
IGROV1 ovarian = system: IGROV1 ovarian
HCC-2998 colon = system: HCC-2998 colon
UO-31 renal = system: UO-31 renal
NCI-H23 lung = system: NCI-H23 lung
NCI-H522 lung = system: NCI-H522 lung
K-562 leukemia = system: K-562 leukemia
SK-MEL-28 melanoma = system: SK-MEL-28 melanoma
HCT-116 colon = system: HCT-116 colon
SF-539 CNS = system: SF-539 CNS
CCRF-CEM leukemia = system: CCRF-CEM leukemia
A498 renal = system: A498 renal
CAKI-1 renal = system: CAKI-1 renal
OVCAR-5 ovarian = system: OVCAR-5 ovarian
HOP-18 NSCLC = system: HOP-18 NSCLC
KM20L2 colon = system: KM20L2 colon
OVCAR-3 ovarian = system: OVCAR-3 ovarian
A549 NSCLC = system: A549 NSCLC
EKVX NSCLC = system: EKVX NSCLC
SF-295 CNS = system: SF-295 CNS
MDA-MB-435 = system: MDA-MB-435
TK-10 renal = system: TK-10 renal
LOX IMVI melanoma = system: LOX IMVI melanoma
SW-620 colon = system: SW-620 colon
HT29 colon = system: HT29 colon
BT-549 breast = system: BT-549 breast
KM12 colon = system: KM12 colon
DU-145 prostate = system: DU-145 prostate
MDA-N = system: MDA-N
OVCAR-8 ovarian = system: OVCAR-8 ovarian
T-47D breast = system: T-47D breast
PC-3 prostate = system: PC-3 prostate
MALME-3M melanoma = system: MALME-3M melanoma
UACC-257 melanoma = system: UACC-257 melanoma
RXF 393 renal = system: RXF 393 renal
SK-MEL-5 melanoma = system: SK-MEL-5 melanoma
U251 CNS = system: U251 CNS
SNB-19 CNS = system: SNB-19 CNS
MCF7 breast = system: MCF7 breast

## Cc1[nH]c(=O)nc(N(CCO)/N=C/c2ccccc2Cl)c1C(=O)Nc1cc(Cl)cc(Cl)c1
HCT-15 colon
  TGI: > 100 µM
HOP-62 NSCLC
  TGI: 59.1 µM
LXFL 529 NSCLC
  TGI: > 100 µM
SF-268 CNS
  TGI: > 100 µM
M14 melanoma
  TGI: > 100 µM
DLD-1 colon
  TGI: > 100 µM
ACHN renal
  TGI: > 100 µM
SK-MEL-2 melanoma
  TGI: > 100 µM
UACC-62 melanoma
  TGI: > 100 µM
HL-60(TB) leukemia
  TGI: > 100 µM
HOP-92 NSCLC
  TGI: 69.9 µM
XF 498 CNS
  TGI: > 100 µM
MOLT-4 leukemia
  TGI: > 100 µM
RPMI-8226 leukemia
  TGI: > 100 µM
786-0 renal
  TGI: 46.2 µM
SNB-75 CNS
  TGI: 63.8 µM
DMS 114 small cell lung
  TGI: > 100 µM
M19-MEL melanoma
  TGI: > 100 µM
NCI-H460 lung
  TGI: > 100 µM
DMS 273 small cell lung
  TGI: > 100 µM
SR leukemia
  TGI: > 100 µM
SK-OV-3 ovarian
  TGI: 49.8 µM
SN12C renal
  TGI: > 100 µM
OVCAR-4 ovarian
  TGI: 93 µM
COLO 205 colon
  TGI: > 100 µM
NCI-H226 lung
  TGI: 53.3 µM
RXF-631 renal
  TGI: > 100 µM
IGROV1 ovarian
  TGI: > 100 µM
HCC-2998 colon
  TGI: > 100 µM
UO-31 renal
  TGI: > 100 µM
NCI-H23 lung
  TGI: > 100 µM
NCI-H522 lung
  TGI: 87.9 µM
K-562 leukemia
  TGI: > 100 µM
SK-MEL-28 melanoma
  TGI: > 100 µM
HCT-116 colon
  TGI: 59.4 µM
SF-539 CNS
  TGI: 60.1 µM
CCRF-CEM leukemia
  TGI: > 100 µM
A498 renal
  TGI: 44.5 µM
CAKI-1 renal
  TGI: > 100 µM

## CCOC(=O)C(=Cc1ccc(Oc2ccccc2)cc1)C(=O)OCC
HCT-15 colon
  TGI: 6.35 µM
HOP-62 NSCLC
  TGI: 11.2 µM
OVCAR-5 ovarian
  TGI: 14 µM
HOP-18 NSCLC
  TGI: 26.8 µM
LXFL 529 NSCLC
  TGI: 6.39 µM
KM20L2 colon
  TGI: 16.8 µM
SF-268 CNS
  TGI: 9.19 µM
M14 melanoma
  TGI: 9.6 µM
DLD-1 colon
  TGI: 5.21 µM
ACHN renal
  TGI: 18.3 µM
SK-MEL-2 melanoma
  TGI: 4.4 µM
OVCAR-3 ovarian
  TGI: 19.1 µM
UACC-62 melanoma
  TGI: 3.26 µM
A549 NSCLC
  TGI: 22.6 µM
EKVX NSCLC
  TGI: 29.4 µM
HL-60(TB) leukemia
  TGI: 5.54 µM
SF-295 CNS
  TGI: 10.6 µM
HOP-92 NSCLC
  TGI: 16.2 µM
XF 498 CNS
  TGI: 11.3 µM
MDA-MB-435
  TGI: 6.33 µM
TK-10 renal
  TGI: 19.4 µM
MOLT-4 leukemia
  TGI: 4.93 µM
RPMI-8226 leukemia
  TGI: 6.89 µM
786-0 renal
  TGI: 3.47 µM
SNB-75 CNS
  TGI: 11 µM
LOX IMVI melanoma
  TGI: 3.22 µM
DMS 114 small cell lung
  TGI: 10.9 µM
NCI-H460 lung
  TGI: 40.7 µM
SW-620 colon
  TGI: 5.9 µM
DMS 273 small cell lung
  TGI: 3.68 µM
SR leukemia
  TGI: 6.07 µM
SK-OV-3 ovarian
  TGI: 20.5 µM
HT29 colon
  TGI: 11 µM
SN12C renal
  TGI: 5.65 µM
OVCAR-4 ovarian
  TGI: 22.9 µM
COLO 205 colon
  TGI: 11.4 µM
BT-549 breast
  TGI: 5.11 µM
KM12 colon
  TGI: 19 µM
NCI-H226 lung
  TGI: 12.1 µM
DU-145 prostate
  TGI: 27.5 µM
RXF-631 renal
  TGI: 12.1 µM
MDA-N
  TGI: 18.6 µM
IGROV1 ovarian
  TGI: 20.8 µM
HCC-2998 colon
  TGI: 24 µM
OVCAR-8 ovarian
  TGI: 10.7 µM
UO-31 renal
  TGI: 11.8 µM
NCI-H23 lung
  TGI: 6.93 µM
NCI-H522 lung
  TGI: 10.1 µM
T-47D breast
  TGI: 24.6 µM
K-562 leukemia
  TGI: 5.27 µM
PC-3 prostate
  TGI: 6.12 µM
SK-MEL-28 melanoma
  TGI: 7.49 µM
MALME-3M melanoma
  TGI: 7.4 µM
HCT-116 colon
  TGI: 5.93 µM
SF-539 CNS
  TGI: 10.3 µM
UACC-257 melanoma
  TGI: 6.63 µM
RXF 393 renal
  TGI: 4.69 µM
SK-MEL-5 melanoma
  TGI: 3.9 µM
U251 CNS
  TGI: 9.25 µM
CCRF-CEM leukemia
  TGI: 6.75 µM
SNB-19 CNS
  TGI: 17.5 µM
MCF7 breast
  TGI: 18.5 µM
A498 renal
  TGI: 28.8 µM
CAKI-1 renal
  TGI: 28.4 µM
